How the values were obtained:
[1] = biological target: JAK1 (recombinant purified GST-tagged catalytic domain) (Homo sapiens (Human), UniProt P23458); test: biochemical;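 further: biochemical assay with HTRF read-out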
[2] = biological target: JAK2 (recombinant purified GST-tagged catalytic domain) (Homo sapiens (Human), UniProt O60674); test: biochemical;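 further: biochemical JAK kinase assay with HTRF detection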
Chain of JAK2 (recombinant purified GST-tagged catalytic domain) (O60674 849-1124): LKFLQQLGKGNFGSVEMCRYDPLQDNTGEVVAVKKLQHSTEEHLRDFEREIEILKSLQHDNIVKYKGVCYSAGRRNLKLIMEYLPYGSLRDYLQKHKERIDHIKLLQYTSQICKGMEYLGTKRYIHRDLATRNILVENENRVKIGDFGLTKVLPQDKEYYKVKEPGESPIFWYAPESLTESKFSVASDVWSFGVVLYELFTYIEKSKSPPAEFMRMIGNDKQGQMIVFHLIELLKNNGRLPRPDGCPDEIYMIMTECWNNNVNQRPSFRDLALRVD

Chain of JAK1 (recombinant purified GST-tagged catalytic domain) (P23458 875-1153): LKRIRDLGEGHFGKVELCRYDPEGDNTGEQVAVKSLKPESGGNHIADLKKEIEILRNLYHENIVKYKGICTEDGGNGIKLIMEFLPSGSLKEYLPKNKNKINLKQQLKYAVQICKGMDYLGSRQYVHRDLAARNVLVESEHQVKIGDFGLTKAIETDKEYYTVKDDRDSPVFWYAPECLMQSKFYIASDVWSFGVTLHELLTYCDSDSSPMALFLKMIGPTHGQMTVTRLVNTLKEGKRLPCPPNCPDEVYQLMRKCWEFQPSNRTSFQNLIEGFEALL

| Structure (SMILES) | IC50 [1] [nM] | IC50 [2] [nM] |
| --- | --- | --- |
| N#C[C@H]1CC(NC(C2CC2)C2CC2)CC[C@@H]1n1cc(C(N)=O)c(Nc2ccc(S(=O)(=O)C(F)(F)F)cc2)n1 (single isomer, unassigned) [Example 28-164, 1-{(1S,2S,4R or 1R,2R,4S)-2-cyano-4-[(dicyclo-propylmethyl)amino]cyclohexyl}-3-({4-[(trifluoro-methyl)sulfonyl]phenyl}amino)-1H-pyrazole-4-carboxamide] | 4 | 225 |
| CN(C)[C@H]1CC[C@H](n2cc(C(N)=O)c(Nc3ccnc(F)c3)n2)[C@@H](C#N)C1 (single isomer, unassigned) [Example 28-128, 1-[(1S,2S,4S or 1R,2R,4R)-2-cyano-4-(dimethylamino)cyclohexyl]-3-[(2-fluoropyridin-4-yl)amino]-1H-pyrazole-4-carboxamide] | 3 | 110 |
| N#C[C@@H]1CCC[C@@H](O)C1n1cc(C(N)=O)c(Nc2ccccc2)n1 (mixture of isomers) [Example 2-5, 1-[(1R,2R,6R and 1S,2S,6S)-2-cyano-6-hydroxycyclohexyl]-3-(phenylamino)-1H-pyrazole-4-carboxamide] | 700 | > 1500 |
| N#C[C@H]1C[C@H](N2CC(F)C2)CC[C@@H]1n1cc(C(N)=O)c(Nc2ccc(S(=O)(=O)C(F)(F)F)cc2)n1 (single isomer, unassigned) [Example 28-112, 1-[(1S,2S,4R or 1R,2R,4S)-2-cyano-4-(3-fluoroazetidin-1-yl)cyclohexyl]-3-({4-[(trifluoro-methyl)sulfonyl]phenyl}amino)-1H-pyrazole-4-carboxamide] | 0.45 | 6 |
| N#C[C@H]1CCCC[C@@H]1n1cc(C(N)=O)c(Nc2ccc(S(=O)(=O)NCc3ccccn3)cc2)n1 (single isomer, unassigned) [Example 17-85, 1-[(1R,2R or 1S,2S)-2-cyanocyclohexyl]-3-({4-[(pyridin-2-ylmethyl)sulfamoyl]phenyl}amino)-1H-pyrazole-4-carboxamide] | 0.9 | 4 |

Further lines, results first:

| IC50 [1] [nM] | IC50 [2] [nM] | Structure (SMILES) |
| --- | --- | --- |
| 1 | 9 | N#Cc1ccc(Nc2nn([C@H]3CCCC[C@@H]3C#N)cc2C(N)=O)cc1 (racemic) [Example 17-5, 1-[(1S,2S and 1R,2R)-2-cyanocyclohexyl]-3-[(4-cyanophenyl)amino]-1H-pyrazole-4-carboxamide] |
| 2 | 26 | N#C[C@H]1C[C@H](O)CC[C@@H]1n1cc(C(N)=O)c(Nc2ccccc2)n1 (single isomer, unassigned) [Example 25-29, 1-[(1S,2S,4R or 1R,2R,4S)-2-cyano-4-hydroxycyclohexyl]-3-(phenylamino)-1H-pyrazole-4-carboxamide] |
| 6 | 61 | N#C[C@H]1C[C@H](O)CC[C@@H]1n1cc(C(N)=O)c(Nc2ccc(OC(F)(F)F)cc2)n1 (single isomer, unassigned) [Example 24, 1-((1S,2S or 1R,2R)-2-cyano-4(R)-hydroxycyclohexyl)-3-((4-(trifluoromethoxy)phenyl)amino)-1H-pyrazole-4-carboxamide] |
| 2 | 9 | N#C[C@H]1C[C@H](OCC2CC2)CC[C@@H]1n1cc(C(N)=O)c(Nc2ccnc(F)c2)n1 (single isomer, unassigned) [Example 26-1, 1-[(1S,2S,4R or 1R,2R,4S)-2-cyano-4-(cyclopropylmethoxy)cyclohexyl]-3-[(2-fluoropyridin-4-yl)amino]-1H-pyrazole-4-carboxamide] |
| 0.6 | 17 | COCCN(C)[C@H]1CC[C@H](n2cc(C(N)=O)c(Nc3ccc(S(=O)(=O)C(F)(F)F)cc3)n2)[C@@H](C#N)C1 (single isomer, unassigned) [Example 28-149, 1-{(1S,2S,4S or 1R,2R,4R)-2-cyano-4-[(2-methoxy-ethyl)(methyl)amino]cyclohexyl}-3-({4-[(trifluoromethyl)sulfonyl]phen-yl}amino)-1H-pyrazole-4-carboxamide] |

— patent publication US8962608B2, “Cycloalkylnitrile pyrazole carboxamides as janus kinase inhibitors” (Merck Sharp & Dohme Corp., priority 2011, dated 2015)
